Measured values as given in ChEMBL document CHEMBL3832761, “MMV Pathogen Box Bioactivity Data” (2017).
Converted amounts (≈) assume the structure as drawn.

Key:
Format in all cases: functional
[1] = system: Mycobacterium tuberculosis; experiment: AntiMycobacterium tuberculosis activity 1-week 7H9/glucose/BSA/Tx MIC (uM); conditions: 168 h
[2] = system: Mycobacterium tuberculosis; experiment: AntiMycobacterium tuberculosis activity 2-week 7H9/glucose/BSA/Tx MIC (uM); conditions: 336 h
[3] = system: Mycobacterium tuberculosis; experiment: AntiMycobacterium tuberculosis activity 2-week Alamar Blue 7H9/cholesterol/BSA/Tx MIC (uM); conditions: 336 h
[4] = system: Mycobacterium tuberculosis; experiment: AntiMycobacterium tuberculosis activity 1-week GAST/Fe MIC (uM); conditions: 168 h
[5] = system: Mycobacterium tuberculosis; experiment: AntiMycobacterium tuberculosis activity 2-week 7H9/DPPC/cholesterol/BSA/Tx MIC (uM); conditions: 336 h
[6] = system: Mycobacterium tuberculosis; experiment: AntiMycobacterium tuberculosis activity day 21 in 7H9/2.5mM butyrate/pH6/0.1mM nitrite MIC90 (uM); conditions: 504 h
[7] = system: Mycobacterium tuberculosis; experiment: AntiMycobacterium tuberculosis activity 1-week 7H9/cholesterol/BSA/Tx MIC (uM); conditions: 168 h
HepG2 = experiment: HepG2 CC50 (uM) Cytotoxicity; conditions: Homo sapiens
[8] = system: Mycobacterium tuberculosis; experiment: AntiMycobacterium tuberculosis activity day 21 MIC99 in 7H9/2.5mM butyrate/pH6/0.1mM nitrite MIC99 (uM); conditions: 504 h
[9] = system: Mycobacterium tuberculosis; experiment: AntiMycobacterium tuberculosis activity Replicating form: Average MIC90 (uM)
[10] = system: Mycobacterium tuberculosis; experiment: AntiMycobacterium tuberculosis activity 1-week 7H9/ADC/Tw MIC (uM); conditions: 168 h
[11] = system: Mycobacterium tuberculosis; experiment: AntiMycobacterium tuberculosis activity 2-week 7H9/ADC/Tw MIC (uM); conditions: 336 h
[12] = system: Mycobacterium tuberculosis; experiment: AntiMycobacterium tuberculosis activity 2-week GAST/Fe MIC (uM); conditions: 336 h
[13] = system: Mycobacterium tuberculosis; experiment: (§1) AntiMycobacterium tuberculosis activity day 10 in 7H9/2.5mM butyrate/pH6/0.1mM nitrite MIC90 (uM); conditions: 240 h
[14] = system: Mycobacterium tuberculosis; experiment: AntiMycobacterium tuberculosis activity 1-week 7H9/DPPC/cholesterol/BSA/Tx MIC (uM); conditions: 168 h
[15] = system: Mycobacterium tuberculosis; experiment: AntiMycobacterium tuberculosis activity 2-week Alamar Blue 7H9/ADC/Tw MIC (uM); conditions: 336 h
[16] = system: Mycobacterium tuberculosis; experiment: as §1; conditions: 240 h; remark: listed apart in the source
[17] = system: Mycobacterium tuberculosis; experiment: AntiMycobacterium tuberculosis activity Non-Replicating form: Average MIC90 (uM)

SMILES	MIC [1] [µM]	MIC [2] [µM]	MIC [3] [µM]	MIC [4] [µM]	MIC [5] [µM]	MIC90 [6] [µM]	MIC [7] [µM]	CC50 (HepG2) [µM]	MIC [8] [µM]	MIC90 [9] [µM]	MIC [10] [µM]	MIC [11] [µM]	MIC [12] [µM]	MIC90 [13] [µM]	MIC [14] [µM]	MIC [15] [µM]	MIC90 [16] [µM]	MIC90 [17] [µM]
CCCn1nnc(NC(=O)COc2ccc(C3CCCCC3)cc2)n1	19 (≈ 6.53 µg/mL)	37 (≈ 12.7 µg/mL)	25 (≈ 8.59 µg/mL)	6.25 (≈ 2.15 µg/mL)	37 (≈ 12.7 µg/mL)	50 (≈ 17.2 µg/mL)	6.25 (≈ 2.15 µg/mL)	> 100	50 (≈ 17.2 µg/mL)	40.1 (≈ 13.8 µg/mL)	19 (≈ 6.53 µg/mL)	37 (≈ 12.7 µg/mL)	12.5 (≈ 4.29 µg/mL)	25 (≈ 8.59 µg/mL)	19 (≈ 6.53 µg/mL)	37 (≈ 12.7 µg/mL)	50 (≈ 17.2 µg/mL)	98.5 (≈ 33.8 µg/mL)
COc1cc(C(F)(F)F)nc2ccc(C)c(N)c12	25 (≈ 6.41 µg/mL)	> 50	3.13 (≈ 0.802 µg/mL)	0.2 (≈ 0.0512 µg/mL)	50 (≈ 12.8 µg/mL)	6.25 (≈ 1.6 µg/mL)	2.3 (≈ 0.589 µg/mL)	> 100	> 50	> 100	> 50	> 50	0.6 (≈ 0.154 µg/mL)	3.12 (≈ 0.799 µg/mL)	4.7 (≈ 1.2 µg/mL)	12.5 (≈ 3.2 µg/mL)	> 50	16.1 (≈ 4.12 µg/mL)
Cc1nn(Cc2ccccc2)c(Cl)c1C(=O)NC1CCCCCC1	37 (≈ 12.8 µg/mL)	> 50	2.3 (≈ 0.796 µg/mL)	0.39 (≈ 0.135 µg/mL)	6.25 (≈ 2.16 µg/mL)	25 (≈ 8.65 µg/mL)	1.56 (≈ 0.54 µg/mL)	> 100	25 (≈ 8.65 µg/mL)	> 100	19 (≈ 6.57 µg/mL)	50 (≈ 17.3 µg/mL)	0.39 (≈ 0.135 µg/mL)	3.12 (≈ 1.08 µg/mL)	4.7 (≈ 1.63 µg/mL)	6.25 (≈ 2.16 µg/mL)	3.12 (≈ 1.08 µg/mL)	5.96 (≈ 2.06 µg/mL)
O=C(Nc1nc(-c2ccccn2)cs1)c1cncn1-c1ccccc1	19 (≈ 6.6 µg/mL)	25 (≈ 8.69 µg/mL)	12.5 (≈ 4.34 µg/mL)	1.56 (≈ 0.542 µg/mL)	25 (≈ 8.69 µg/mL)	12.5 (≈ 4.34 µg/mL)	9.4 (≈ 3.27 µg/mL)	3.8	> 50	82.7 (≈ 28.7 µg/mL)	19 (≈ 6.6 µg/mL)	25 (≈ 8.69 µg/mL)	3.13 (≈ 1.09 µg/mL)	6.25 (≈ 2.17 µg/mL)	9.4 (≈ 3.27 µg/mL)	19 (≈ 6.6 µg/mL)	> 50	32.5 (≈ 11.3 µg/mL)
O=C(NC1CCCCC1)N1CCN(Cc2ccc3c(c2)OCO3)CC1	> 50	> 50	12.5 (≈ 4.32 µg/mL)	0.78 (≈ 0.269 µg/mL)	50 (≈ 17.3 µg/mL)	50 (≈ 17.3 µg/mL)	6.25 (≈ 2.16 µg/mL)	> 100	50 (≈ 17.3 µg/mL)	> 100	> 50	> 50	1.2 (≈ 0.415 µg/mL)	> 50	9.4 (≈ 3.25 µg/mL)	12.5 (≈ 4.32 µg/mL)	> 50	> 100
CC(Oc1ccccc1)C(=O)Nc1nc(-c2ccccn2)cs1 (stereo unspecified)	12.5 (≈ 4.07 µg/mL)	50 (≈ 16.3 µg/mL)	19 (≈ 6.18 µg/mL)	1.56 (≈ 0.508 µg/mL)	> 50	12.5 (≈ 4.07 µg/mL)	9.4 (≈ 3.06 µg/mL)	29.3	6.25 (≈ 2.03 µg/mL)	91.3 (≈ 29.7 µg/mL)	12.5 (≈ 4.07 µg/mL)	12.5 (≈ 4.07 µg/mL)	2.3 (≈ 0.748 µg/mL)	12.5 (≈ 4.07 µg/mL)	25 (≈ 8.13 µg/mL)	12.5 (≈ 4.07 µg/mL)	6.25 (≈ 2.03 µg/mL)	41.7 (≈ 13.6 µg/mL)
CCc1nc2ccccc2n1CC(O)COc1cc(C)ccc1Cl (stereo unspecified)	37 (≈ 12.8 µg/mL)	≥ 50	9.4 (≈ 3.24 µg/mL)	12.5 (≈ 4.31 µg/mL)	25 (≈ 8.62 µg/mL)	50 (≈ 17.2 µg/mL)	9.4 (≈ 3.24 µg/mL)	43.2	> 50	78 (≈ 26.9 µg/mL)	37 (≈ 12.8 µg/mL)	≥ 50	12.5 (≈ 4.31 µg/mL)	25 (≈ 8.62 µg/mL)	12.5 (≈ 4.31 µg/mL)	37 (≈ 12.8 µg/mL)	> 50	70 (≈ 24.1 µg/mL)
COc1ccc(Cn2cnc3c(-c4ccco4)nc(Cl)nc32)cc1	> 50	> 50	3.13 (≈ 1.07 µg/mL)	0.78 (≈ 0.266 µg/mL)	> 50	> 50	6.25 (≈ 2.13 µg/mL)	> 100	> 50	> 100	> 50	> 50	1.56 (≈ 0.532 µg/mL)	50 (≈ 17 µg/mL)	4.7 (≈ 1.6 µg/mL)	19 (≈ 6.47 µg/mL)	> 50	8.43 (≈ 2.87 µg/mL)
CCOC(=O)c1cc(-c2csc(Nc3c(C)cc(C)cc3C)n2)on1	3.13 (≈ 1.12 µg/mL)	4.7 (≈ 1.68 µg/mL)	3.13 (≈ 1.12 µg/mL)	12.5 (≈ 4.47 µg/mL)	6.25 (≈ 2.23 µg/mL)	6.25 (≈ 2.23 µg/mL)	1.56 (≈ 0.558 µg/mL)	24.4	6.25 (≈ 2.23 µg/mL)	17.5 (≈ 6.26 µg/mL)	4.7 (≈ 1.68 µg/mL)	9.4 (≈ 3.36 µg/mL)	12.5 (≈ 4.47 µg/mL)	3.1 (≈ 1.11 µg/mL)	3.13 (≈ 1.12 µg/mL)	6.25 (≈ 2.23 µg/mL)	6.25 (≈ 2.23 µg/mL)	13.8 (≈ 4.94 µg/mL)
N#Cc1nc(-c2ccccc2)oc1S(=O)(=O)c1ccc(Cl)cc1	3.13 (≈ 1.08 µg/mL)	6.25 (≈ 2.15 µg/mL)	12.5 (≈ 4.31 µg/mL)	0.6 (≈ 0.207 µg/mL)	12.5 (≈ 4.31 µg/mL)	12.5 (≈ 4.31 µg/mL)	6.25 (≈ 2.15 µg/mL)	2.2	> 50	2.59 (≈ 0.893 µg/mL)	3.13 (≈ 1.08 µg/mL)	6.25 (≈ 2.15 µg/mL)	0.6 (≈ 0.207 µg/mL)	6.25 (≈ 2.15 µg/mL)	6.25 (≈ 2.15 µg/mL)	6.25 (≈ 2.15 µg/mL)	> 50	0.41 (≈ 0.141 µg/mL)
COc1ccc2nc(C)cc(OCC(=O)NCc3ccccc3)c2c1	> 50	> 50	3.13 (≈ 1.05 µg/mL)	0.78 (≈ 0.262 µg/mL)	> 50	> 50	> 50	> 100	> 50	> 100	> 50	> 50	1.56 (≈ 0.525 µg/mL)	> 50	12.5 (≈ 4.2 µg/mL)	6.25 (≈ 2.1 µg/mL)	> 50	27.1 (≈ 9.12 µg/mL)
CC(C)(C(=O)Nc1ccc(F)cc1)n1cc(-c2ccccc2F)cn1	3.13 (≈ 1.07 µg/mL)	3.13 (≈ 1.07 µg/mL)	1.56 (≈ 0.533 µg/mL)	2.3 (≈ 0.785 µg/mL)	1.56 (≈ 0.533 µg/mL)	6.25 (≈ 2.13 µg/mL)	0.6 (≈ 0.205 µg/mL)	> 100	12.5 (≈ 4.27 µg/mL)	4.51 (≈ 1.54 µg/mL)	1.56 (≈ 0.533 µg/mL)	1.56 (≈ 0.533 µg/mL)	2.3 (≈ 0.785 µg/mL)	6.25 (≈ 2.13 µg/mL)	2.3 (≈ 0.785 µg/mL)	2.3 (≈ 0.785 µg/mL)	12.5 (≈ 4.27 µg/mL)	3.6 (≈ 1.23 µg/mL)
